These results are taken from patent US20110124867A1, “Process and intermediates for the Synthesis of heterocyclic Substituted Piperazines with CXCR3 Antagonist Activity” (Schering Corporation, priority 2007, published 2011).

The target of one series is T1, CXCR3 (Homo sapiens, UniProt P49682).
T1 sequence (P49682 1-368): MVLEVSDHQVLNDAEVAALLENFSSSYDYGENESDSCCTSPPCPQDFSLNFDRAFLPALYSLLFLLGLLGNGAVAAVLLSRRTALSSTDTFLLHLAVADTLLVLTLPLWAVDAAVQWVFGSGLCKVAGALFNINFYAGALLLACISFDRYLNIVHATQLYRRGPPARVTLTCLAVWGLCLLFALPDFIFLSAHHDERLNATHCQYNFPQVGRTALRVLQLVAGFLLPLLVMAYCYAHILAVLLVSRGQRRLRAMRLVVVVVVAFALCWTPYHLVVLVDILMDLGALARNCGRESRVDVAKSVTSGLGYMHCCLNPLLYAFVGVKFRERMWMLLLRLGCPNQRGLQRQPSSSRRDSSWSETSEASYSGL
The settings on record: statement in words, refers to the '641 application; cited from earlier work.

Series [1] in a line: aqueous solubility of salt forms (comparison in words, no method given). The note with it: methylsulfonate salt compared to other salts. Type of series: physicochemical.

In the case of `CCNc1nnc(-c2cnc(N3C[C@H](CC)N(C4CCN(C(=O)c5ccc(Cl)cc5)CC4)C[C@H]3C)c(C)n2)o1` [Compound A45], on CXCR3, the CXCR3 inhibitor activity entry is recorded as “useful CXCR3 inhibitor activity”.
Consider `CCNc1nnc(-c2cnc(N3C[C@H](CC)N(C4CCN(C(=O)c5ccc(Cl)cc5)CC4)C[C@H]3C)c(C)n2)o1` [Compound II-1], for which the aqueous solubility result in series [1] is on record as “higher aqueous solubility”.
